The test system of the data set is HeLa cells transfected with GR-GFP. Put plainly: GR-GFP translocation assay for cytosolic access.

As to `C[C@@H]1C[C@H]2[C@@H]3CCC4=CC(=O)C=C[C@]4(C)[C@@]3(F)[C@@H](O)C[C@]2(C)[C@@]1(O)C(=O)CO` [Dex, dexamethasone], the “effect of bafilomycin on TR” value (200 nM bafilomycin 1 h pretreatment, then 1 μM) is given as “did not alter”. Moreover, where the note is “50 μM EIPA 30 min pretreatment, then 1 μM 30 min 37°C”, the “effect of EIPA on TR” value is “Neither EIPA nor dynasore blocked the increase”. The “effect of dynasore on TR” value (80 μM dynasore 30 min pretreatment, then 1 μM 30 min 37°C) was “Neither EIPA nor dynasore blocked the increase”. For the same molecule, the “reduction of the increase in TR by MβCD” value (5 mM MβCD, 1 μM 30 min) was 53%.

The values above are taken from PMC3488872 (Chemistry & biology, 2012).
